# Results published in patent publication US5126336A, “Antibiotic C-3 catechol-substituted cephalosporin compounds, compositions and method of use thereof” (Bristol-Myers Squibb Company, priority 1990, dated 1992).
# Read-outs that look alike come from different tables or passages of the source.
# Legend:
# Assay in all cases: MIC, agar dilution
# Type in all cases: cell-based
# [1] = system: P. cepacia A21213; settings: Burkholderia cepacia, Mueller-Hinton agar pH 7.2, 32° C., 18 hr, 10^6 cells/ml
# Protocol: (§1) Minimum inhibitory concentrations (MICs) of the present series of cephalosporins were determined against 32 strains of test organisms by two-fold serial agar dilution method in Mueller-Hinton agar. Geometric means of MICs were calculated against six groups of the test organisms which are classified as follows and summarized in Table 1.
# (§2) Medium; MuellerHinton agar (pH = 7.2)
# (§3) Incubation temperature: 32° C., 18 hr
# (§4) Inoculum size; 10^6 cells/ml
# [2] = system: E. coli 255; settings: Escherichia coli, Mueller-Hinton agar pH 7.2, 32° C., 18 hr, 10^6 cells/ml
# Protocol: as §1, §2, §3, §4
# [3] = system: E. cloacae IPM-12; settings: Enterobacter cloacae, IPM12, Mueller-Hinton agar pH 7.2, 32° C., 18 hr, 10^6 cells/ml
# Protocol: as §1, §2, §3, §4
# [4] = system: C. terrigena IFO 12685; settings: Mueller-Hinton agar pH 7.2, 32° C., 18 hr, 10^6 cells/ml
# Protocol: as §1, §2, §3, §4
# [5] = system: P. rettgeri IPM-14; settings: Providencia rettgeri, IPM14, Mueller-Hinton agar pH 7.2, 32° C., 18 hr, 10^6 cells/ml
# Protocol: as §1, §2, §3, §4
# [6] = system: S. aureus 4-1015 (MRSA); settings: Staphylococcus aureus, Mueller-Hinton agar pH 7.2, 32° C., 18 hr, 10^6 cells/ml
# Protocol: as §1, §2, §3, §4
# [7] = system: X. maltophilia GN 12873; settings: Stenotrophomonas maltophilia, GN12873, Mueller-Hinton agar pH 7.2, 32° C., 18 hr, 10^6 cells/ml
# Protocol: as §1, §2, §3, §4
# [8] = system: P. aeruginosa IPM-8; settings: Pseudomonas aeruginosa, IPM8, Mueller-Hinton agar pH 7.2, 32° C., 18 hr, 10^6 cells/ml
# Protocol: as §1, §2, §3, §4
# [9] = system: E. faecalis A9808; settings: Enterococcus faecalis, Mueller-Hinton agar pH 7.2, 32° C., 18 hr, 10^6 cells/ml
# Protocol: as §1, §2, §3, §4
# [10] = system: S. aureus 209P; settings: Staphylococcus aureus
# Protocol: as §1, §2, §3, §4
# [11] = system: P. mirabilis IFO-2849; settings: Proteus mirabilis, IFO2849, Mueller-Hinton agar pH 7.2, 32° C., 18 hr, 10^6 cells/ml
# Protocol: as §1, §2, §3, §4
# [12] = system: E. faecium A24817; settings: Enterococcus faecium, Mueller-Hinton agar pH 7.2, 32° C., 18 hr, 10^6 cells/ml
# Protocol: as §1, §2, §3, §4
# [13] = system: P. cepacia No. 651; settings: Burkholderia cepacia, Mueller-Hinton agar pH 7.2, 32° C., 18 hr, 10^6 cells/ml
# Protocol: as §1, §2, §3, §4
# [14] = system: M. morgani 1510/9; settings: Mueller-Hinton agar pH 7.2, 32° C., 18 hr, 10^6 cells/ml
# Protocol: as §1, §2, §3, §4
# [15] = system: M. morgani 1510; settings: Mueller-Hinton agar pH 7.2, 32° C., 18 hr, 10^6 cells/ml
# Protocol: as §1, §2, §3, §4
# [16] = system: B. subtilis PCI 219; settings: Bacillus subtilis, PCI219, Mueller-Hinton agar pH 7.2, 32° C., 18 hr, 10^6 cells/ml
# Protocol: as §1, §2, §3, §4
# [17] = system: S. marcescens IPM-16; settings: Serratia marcescens, IPM16, Mueller-Hinton agar pH 7.2, 32° C., 18 hr, 10^6 cells/ml
# Protocol: as §1, §2, §3, §4
# [18] = system: P. vulgaris IPM-13; settings: Proteus vulgaris, IPM13, Mueller-Hinton agar pH 7.2, 32° C., 18 hr, 10^6 cells/ml
# Protocol: as §1, §2, §3, §4
# [19] = system: P. aeruginosa IPM-9; settings: Pseudomonas aeruginosa, IPM9, Mueller-Hinton agar pH 7.2, 32° C., 18 hr, 10^6 cells/ml
# Protocol: as §1, §2, §3, §4
# [20] = system: S. marcescens IPM-15; settings: Serratia marcescens, IPM15, Mueller-Hinton agar pH 7.2, 32° C., 18 hr, 10^6 cells/ml
# Protocol: as §1, §2, §3, §4
# [21] = system: X. maltophilia No. 661; settings: Stenotrophomonas maltophilia, Mueller-Hinton agar pH 7.2, 32° C., 18 hr, 10^6 cells/ml
# Protocol: as §1, §2, §3, §4
# [22] = system: P. aeruginosa A20599; settings: Pseudomonas aeruginosa, Mueller-Hinton agar pH 7.2, 32° C., 18 hr, 10^6 cells/ml
# Protocol: as §1, §2, §3, §4
# [23] = system: M. luteus 1001; settings: Micrococcus luteus, Mueller-Hinton agar pH 7.2, 32° C., 18 hr, 10^6 cells/ml
# Protocol: as §1, §2, §3, §4
# [24] = system: S. aureus IPM-24 (MRSA); settings: Staphylococcus aureus, Mueller-Hinton agar pH 7.2, 32° C., 18 hr, 10^6 cells/ml
# Protocol: as §1, §2, §3, §4
# [25] = system: K. pneumoniae PCI 602; settings: Klebsiella pneumoniae, PCI602, Mueller-Hinton agar pH 7.2, 32° C., 18 hr, 10^6 cells/ml
# Protocol: as §1, §2, §3, §4
# [26] = system: P. aeruginosa KKA 19; settings: Pseudomonas aeruginosa, KKA19, Mueller-Hinton agar pH 7.2, 32° C., 18 hr, 10^6 cells/ml
# Protocol: as §1, §2, §3, §4
# [27] = system: S. epidermidis 11-1230; settings: Staphylococcus epidermidis, 111230, Mueller-Hinton agar pH 7.2, 32° C., 18 hr, 10^6 cells/ml
# Protocol: as §1, §2, §3, §4
# [28] = system: C. freundii GN 7391; settings: Citrobacter freundii, GN7391, Mueller-Hinton agar pH 7.2, 32° C., 18 hr, 10^6 cells/ml
# Protocol: as §1, §2, §3, §4
# [29] = system: S. epidermidis 11-1168; settings: Staphylococcus epidermidis, 111168, Mueller-Hinton agar pH 7.2, 32° C., 18 hr, 10^6 cells/ml
# Protocol: as §1, §2, §3, §4
# [30] = system: E. coli Juhl A15119; settings: Escherichia coli, JUHLA15119; E. coli Juhl A15119; Mueller-Hinton agar pH 7.2; 32° C., 18 hr; 10^6 cells/ml; read-out: MIC
# Outline: (§5)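 Two-fold serial agar dilution in Mueller-Hinton agar (pH 7.2), inoculum 10^6 cells/ml, incubated 32° C for 18 hr. In vivo protection measured as PD50 in mice dosed intramuscularly just after bacterial challenge.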
# [31] = system: P. aeruginosa A9843A; settings: Pseudomonas aeruginosa, A9843A, 18 h, pH 7.2
# Outline: as §5
# [32] = system: S. aureus Smith; settings: Staphylococcus aureus; S. aureus Smith; Mueller-Hinton agar pH 7.2; 32° C., 18 hr; 10^6 cells/ml; read-out: MIC
# Outline: as §5
Structure (SMILES),MIC [1] [µg/mL],MIC [2] [µg/mL],MIC [3] [µg/mL],MIC [4] [µg/mL],MIC [5] [µg/mL],MIC [6] [µg/mL],MIC [7] [µg/mL],MIC [8] [µg/mL],MIC [9] [µg/mL],MIC [11] [µg/mL],MIC [12] [µg/mL],MIC [13] [µg/mL],MIC [14] [µg/mL],MIC [15] [µg/mL],MIC [16] [µg/mL],MIC [17] [µg/mL],MIC [18] [µg/mL],MIC [19] [µg/mL],MIC [20] [µg/mL],MIC [21] [µg/mL],other results
"Nc1nc(/C(=N/O)C(=O)NC2C(=O)N3C(C(=O)O)=C(/C=C/Cn4ccc5cc(=O)c(O)cc-5c4)CS[C@H]23)cs1 (stereo partly shown) [Is, 7-[(Z)-2-(2-Aminothiazol-4-yl)-2-hydroxyiminoacetamido]-3-[(E)-3-(2,6-dihydro-7-hydroxy-6-oxo-isoquinolin-2-yl)-1-propen-1-yl]-3-cephem-4-carboxylic acid]",> 100,0.4,> 100,1.6,1.6,3.1,> 100,> 100,6.3,0.4,100,> 100,0.2,12.5,0.8,> 100,> 100,> 100,> 100,> 100,"MIC ([10]; S. aureus 209P, Mueller-Hinton agar pH 7.2, 32° C., 18 hr, 10^6 cells/ml, read-out: MIC): 0.8 µg/mL; MIC [22]: > 100 µg/mL; MIC [23]: 0.4 µg/mL; MIC [24]: 12.5 µg/mL; MIC [25]: 0.1 µg/mL; MIC [26]: > 100 µg/mL; MIC [27]: 3.1 µg/mL; MIC [28]: > 100 µg/mL; MIC [29]: 6.3 µg/mL; MIC [30]: 0.2 µg/mL; MIC [31]: > 100 µg/mL; MIC [32]: 0.8 µg/mL"
"Nc1nc(/C(=N/O)C(=O)NC2C(=O)N3C(C(=O)O)=C(/C=C/Cn4cnc5cc(O)c(O)cc54)CS[C@H]23)cs1 (stereo partly shown) [Ir, 7-[(Z)-2-(2-Aminothiazol-4-yl)-2-hydroxyiminoacetamido]-3-[(E)-3-(5,6-dihydroxybenzimidazol-1-yl)-1-propen-1-yl]-3-cephem-4-carboxylic acid]",> 100,0.8,> 100,3.1,3.1,12.5,> 100,3.1,12.5,0.8,> 100,> 100,0.8,25,1.6,> 100,> 100,> 100,100,> 100,"MIC ([10]; 209P, 18 h, pH 7.2): 3.1 µg/mL; MIC [22]: 12.5 µg/mL; MIC [23]: 0.8 µg/mL; MIC [24]: 100 µg/mL; MIC [25]: 0.1 µg/mL; MIC [26]: 12.5 µg/mL; MIC [27]: 12.5 µg/mL; MIC [28]: 50 µg/mL; MIC [29]: 12.5 µg/mL; MIC [30]: 0.4 µg/mL; MIC [31]: 6.3 µg/mL; MIC [32]: 1.6 µg/mL"
